Laboratory results reported in patent US20150125889A1, “IN VITRO DETECTION OF MICROORGANISMS WITH AZOREDUCTASE ACTIVITY” (BIOMÉRIEUX, priority 2012, published 2015).

Assays:
Assay in all cases: Reduction of azo substrates over 24 hours at 35° C., microtitration plate (Example 1)
Format in all cases: cell-based
[1] = tested on: Acinetobacter baumanii; set-up: key to RED (substrate reduced or not): RED indicates whether the substrate is reduced (Y) or not (N); RED indicates whether the substrate is reduced (Y) or not (N); key to Decol (substrate decolourized, decrease in absorbance) / Fluo (fluorescence multiplied by 2 relative to substrate-free control) / Co (growth, absorbance at 660 nm): The symbol “+” means good growth/decolourization/significant increase in fluorescence; The symbol “+/−” means difficult growth; The symbol “−” means that there is no growth/decolourization/significant increase in fluorescence; conditions: A. baumannii, substrate 35 mg/l
Procedure: (§1) Reduction of the “azo” function of the substrates listed in Table I by the species listed in Table II, each species being represented by a strain, is tested in a microtitration plate.
(§2) The reaction medium consists of: • Trypcase soya broth • Substrate 35 mg/l • 0.5 MacFarland inoculum
(§3) The reduction of the substrate and the growth of the microorganisms are monitored using an Infinite® M200 Tecan microplate reader at 35° C. over 24 hours.
(§4) The growth is monitored by the absorbance at 660 nm and the reduction of the substrates by absorbance and fluorescence at the specific wavelengths indicated in Table III.
(§5) The substrate is considered as reduced by the microorganisms when the substrate is decolourized (monitored by the decrease in absorbance) (Decol) and/or when the fluorescence of the substrate is multiplied by 2 relative to the base fluorescence of a substrate-free control (Fluo). The growth is indicated by Co. The symbol “+” means good growth/decolourization/significant increase in fluorescence. The symbol “+/−” means difficult growth. The symbol “−” means that there is no growth/decolourization/significant increase in fluorescence. RED indicates whether the substrate is reduced (Y) or not (N).

[2] = tested on: Enterococcus faecalis; set-up: key to RED (substrate reduced or not): RED indicates whether the substrate is reduced (Y) or not (N); RED indicates whether the substrate is reduced (Y) or not (N); key to Decol (substrate decolourized, decrease in absorbance) / Fluo (fluorescence multiplied by 2 relative to substrate-free control) / Co (growth, absorbance at 660 nm): The symbol “+” means good growth/decolourization/significant increase in fluorescence; The symbol “+/−” means difficult growth; The symbol “−” means that there is no growth/decolourization/significant increase in fluorescence; conditions: E. faecalis, substrate 35 mg/l
Procedure: as §1, §2, §3, §4, §5

[3] = tested on: Candida albicans; set-up: key to RED (substrate reduced or not): RED indicates whether the substrate is reduced (Y) or not (N); RED indicates whether the substrate is reduced (Y) or not (N); key to Co (growth, absorbance at 660 nm) / Decol (substrate decolourized, decrease in absorbance) / Fluo (fluorescence multiplied by 2 relative to substrate-free control): The symbol “+” means good growth/decolourization/significant increase in fluorescence; The symbol “+/−” means difficult growth; The symbol “−” means that there is no growth/decolourization/significant increase in fluorescence; conditions: substrate 35 mg/l
Procedure: as §1, §2, §3, §4, §5

[4] = tested on: Staphylococcus epidermidis; set-up: key to RED (substrate reduced or not): RED indicates whether the substrate is reduced (Y) or not (N); RED indicates whether the substrate is reduced (Y) or not (N); key to Co (growth, absorbance at 660 nm) / Decol (substrate decolourized, decrease in absorbance) / Fluo (fluorescence multiplied by 2 relative to substrate-free control): The symbol “+” means good growth/decolourization/significant increase in fluorescence; The symbol “+/−” means difficult growth; The symbol “−” means that there is no growth/decolourization/significant increase in fluorescence; conditions: S. epidermidis, substrate 35 mg/l
Procedure: as §1, §2, §3, §4, §5

[5] = tested on: Geotrichum candidum; set-up: key to RED (substrate reduced or not): RED indicates whether the substrate is reduced (Y) or not (N); RED indicates whether the substrate is reduced (Y) or not (N); key to Co (growth, absorbance at 660 nm) / Decol (substrate decolourized, decrease in absorbance) / Fluo (fluorescence multiplied by 2 relative to substrate-free control): The symbol “+” means good growth/decolourization/significant increase in fluorescence; The symbol “+/−” means difficult growth; The symbol “−” means that there is no growth/decolourization/significant increase in fluorescence; conditions: G. candidum, substrate 35 mg/l
Procedure: as §1, §2, §3, §4, §5

[6] = tested on: Pseudomonas aeruginosa; set-up: key to RED (substrate reduced or not): RED indicates whether the substrate is reduced (Y) or not (N); RED indicates whether the substrate is reduced (Y) or not (N); key to Co (growth, absorbance at 660 nm) / Decol (substrate decolourized, decrease in absorbance) / Fluo (fluorescence multiplied by 2 relative to substrate-free control): The symbol “+” means good growth/decolourization/significant increase in fluorescence; The symbol “+/−” means difficult growth; The symbol “−” means that there is no growth/decolourization/significant increase in fluorescence; conditions: P. aeruginosa, substrate 35 mg/l
Procedure: as §1, §2, §3, §4, §5

[7] = tested on: Cronobacter muytjensii; set-up: key to RED (substrate reduced or not): RED indicates whether the substrate is reduced (Y) or not (N); RED indicates whether the substrate is reduced (Y) or not (N); key to Co (growth, absorbance at 660 nm) / Decol (substrate decolourized, decrease in absorbance) / Fluo (fluorescence multiplied by 2 relative to substrate-free control): The symbol “+” means good growth/decolourization/significant increase in fluorescence; The symbol “+/−” means difficult growth; The symbol “−” means that there is no growth/decolourization/significant increase in fluorescence; conditions: E. muytjensii, substrate 35 mg/l
Procedure: as §1, §2, §3, §4, §5

[8] = tested on: Staphylococcus aureus; set-up: key to RED (substrate reduced or not): RED indicates whether the substrate is reduced (Y) or not (N); RED indicates whether the substrate is reduced (Y) or not (N); key to Co (growth, absorbance at 660 nm) / Decol (substrate decolourized, decrease in absorbance) / Fluo (fluorescence multiplied by 2 relative to substrate-free control): The symbol “+” means good growth/decolourization/significant increase in fluorescence; The symbol “+/−” means difficult growth; The symbol “−” means that there is no growth/decolourization/significant increase in fluorescence; conditions: S. aureus, substrate 35 mg/l
Procedure: as §1, §2, §3, §4, §5

[9] = tested on: Kocuria rosea; set-up: key to RED (substrate reduced or not): RED indicates whether the substrate is reduced (Y) or not (N); RED indicates whether the substrate is reduced (Y) or not (N); key to Co (growth, absorbance at 660 nm) / Decol (substrate decolourized, decrease in absorbance) / Fluo (fluorescence multiplied by 2 relative to substrate-free control): The symbol “+” means good growth/decolourization/significant increase in fluorescence; The symbol “+/−” means difficult growth; The symbol “−” means that there is no growth/decolourization/significant increase in fluorescence; conditions: K. rosea, substrate 35 mg/l
Procedure: as §1, §2, §3, §4, §5

[10] = tested on: Escherichia coli; set-up: key to RED (substrate reduced or not): RED indicates whether the substrate is reduced (Y) or not (N); RED indicates whether the substrate is reduced (Y) or not (N); key to Co (growth, absorbance at 660 nm) / Decol (substrate decolourized, decrease in absorbance) / Fluo (fluorescence multiplied by 2 relative to substrate-free control): The symbol “+” means good growth/decolourization/significant increase in fluorescence; The symbol “+/−” means difficult growth; The symbol “−” means that there is no growth/decolourization/significant increase in fluorescence; conditions: E. coli, substrate 35 mg/l
Procedure: as §1, §2, §3, §4, §5

Oc1ccc2ccccc2c1/N=N/c1ccc(/C=C/c2ccnc3ccccc23)cc1 [BF38, 4″-Quinoline-4′-styryl-azo-2-Hydroxynaphthol]
Co (growth, absorbance at 660 nm) [1]: +
Decol (substrate decolourized, decrease in absorbance) [1]: −
Fluo (fluorescence multiplied by 2 relative to substrate-free control) [1]: −
RED (substrate reduced or not) [1]: N
Co (growth, absorbance at 660 nm) [2]: +
Decol (substrate decolourized, decrease in absorbance) [2]: +
Fluo (fluorescence multiplied by 2 relative to substrate-free control) [2]: −
RED (substrate reduced or not) [2]: Y
Co (growth, absorbance at 660 nm) [3]: +
Decol (substrate decolourized, decrease in absorbance) [3]: −
Fluo (fluorescence multiplied by 2 relative to substrate-free control) [3]: −
RED (substrate reduced or not) [3]: N
Co (growth, absorbance at 660 nm) [4]: +
Decol (substrate decolourized, decrease in absorbance) [4]: +
Fluo (fluorescence multiplied by 2 relative to substrate-free control) [4]: −
RED (substrate reduced or not) [4]: Y
Co (growth, absorbance at 660 nm) [5]: +
Decol (substrate decolourized, decrease in absorbance) [5]: −
Fluo (fluorescence multiplied by 2 relative to substrate-free control) [5]: −
RED (substrate reduced or not) [5]: N
Co (growth, absorbance at 660 nm) [6]: +
Decol (substrate decolourized, decrease in absorbance) [6]: +
Fluo (fluorescence multiplied by 2 relative to substrate-free control) [6]: −
RED (substrate reduced or not) [6]: Y
Co (growth, absorbance at 660 nm) [7]: +
Decol (substrate decolourized, decrease in absorbance) [7]: +
Fluo (fluorescence multiplied by 2 relative to substrate-free control) [7]: −
RED (substrate reduced or not) [7]: Y
Co (growth, absorbance at 660 nm) [8]: +
Decol (substrate decolourized, decrease in absorbance) [8]: +
Fluo (fluorescence multiplied by 2 relative to substrate-free control) [8]: −
RED (substrate reduced or not) [8]: Y
Co (growth, absorbance at 660 nm) [9]: −
Decol (substrate decolourized, decrease in absorbance) [9]: −
Fluo (fluorescence multiplied by 2 relative to substrate-free control) [9]: −
Co (growth, absorbance at 660 nm) [10]: +
Decol (substrate decolourized, decrease in absorbance) [10]: +
Fluo (fluorescence multiplied by 2 relative to substrate-free control) [10]: −
RED (substrate reduced or not) [10]: Y

O=S(=O)([O-])c1ccc2c(N=Nc3cccc4ccccc34)c(O)c(S(=O)(=O)[O-])cc2c1.[Na+].[Na+] [Bordeaux B]
Co (growth, absorbance at 660 nm) [1]: +
Decol (substrate decolourized, decrease in absorbance) [1]: −
Fluo (fluorescence multiplied by 2 relative to substrate-free control) [1]: −
RED (substrate reduced or not) [1]: N
Co (growth, absorbance at 660 nm) [2]: +
Decol (substrate decolourized, decrease in absorbance) [2]: +
Fluo (fluorescence multiplied by 2 relative to substrate-free control) [2]: +
RED (substrate reduced or not) [2]: Y
Co (growth, absorbance at 660 nm) [3]: +
Decol (substrate decolourized, decrease in absorbance) [3]: −
Fluo (fluorescence multiplied by 2 relative to substrate-free control) [3]: −
RED (substrate reduced or not) [3]: N
Co (growth, absorbance at 660 nm) [4]: +
Decol (substrate decolourized, decrease in absorbance) [4]: −
Fluo (fluorescence multiplied by 2 relative to substrate-free control) [4]: −
RED (substrate reduced or not) [4]: N
Co (growth, absorbance at 660 nm) [5]: +/−
Decol (substrate decolourized, decrease in absorbance) [5]: −
Fluo (fluorescence multiplied by 2 relative to substrate-free control) [5]: −
RED (substrate reduced or not) [5]: N
Co (growth, absorbance at 660 nm) [6]: +
Decol (substrate decolourized, decrease in absorbance) [6]: −
Fluo (fluorescence multiplied by 2 relative to substrate-free control) [6]: −
RED (substrate reduced or not) [6]: N
Co (growth, absorbance at 660 nm) [7]: +
Decol (substrate decolourized, decrease in absorbance) [7]: −
Fluo (fluorescence multiplied by 2 relative to substrate-free control) [7]: −
RED (substrate reduced or not) [7]: N
Co (growth, absorbance at 660 nm) [8]: +
Decol (substrate decolourized, decrease in absorbance) [8]: −
Fluo (fluorescence multiplied by 2 relative to substrate-free control) [8]: −
RED (substrate reduced or not) [8]: N
Co (growth, absorbance at 660 nm) [9]: −
Decol (substrate decolourized, decrease in absorbance) [9]: −
Fluo (fluorescence multiplied by 2 relative to substrate-free control) [9]: −
Co (growth, absorbance at 660 nm) [10]: +
Decol (substrate decolourized, decrease in absorbance) [10]: −
Fluo (fluorescence multiplied by 2 relative to substrate-free control) [10]: −
RED (substrate reduced or not) [10]: N
